Reference: BigSolDB 2.1

Cc1ccc[n+](CCCC[n+]2cccc(C)c2)c1.F[P-](F)(F)(F)(F)F.F[P-](F)(F)(F)(F)F
solubility (mole fraction)
Settings | 288.15 K | 293.15 K | 298.15 K | 303.15 K | 308.15 K | 313.15 K | 318.15 K | 323.15 K | 328.15 K | 333.15 K
in 2-butanone | 0.00289 | 0.00328 | 0.00379 | 0.00439 | 0.00496 | 0.00556 | 0.00623 | 0.00706 | 0.00771 | 0.00856
in acetophenone | – | – | 0.000748 | 0.00103 | 0.00138 | 0.00183 | 0.0024 | 0.00311 | 0.00428 | 0.00556
in acetylacetone | 0.00119 | 0.00157 | 0.00214 | 0.00282 | 0.00368 | 0.00462 | 0.00598 | 0.00807 | 0.0101 | 0.0136
in cyclohexanone | 0.000205 | 0.000333 | 0.00051 | 0.000746 | 0.000967 | 0.00121 | 0.00146 | 0.00164 | 0.0018 | 0.00186
in water | 2e-06 | 3e-06 | 5e-06 | 8e-06 | 1.4e-05 | 2.4e-05 | 3.9e-05 | 6.3e-05 | 9.8e-05 | 0.000157
